For orientation: AC50 means the concentration at which the activity in the assay is half-maximal. What is called IC50 is the concentration at which inhibition is half-maximal. One may read the CC50 as the concentration that lowers cell viability or growth by half.

Active and inactive are the calls of the source. Bounds are passed on as bounds.

The nature of assay [1]: non-specific 3'UTR reporter inhibition in Clone20-Shn3RL – cell-based, Renilla luciferase, cherry-picked, counter-screen for Shn3 inhibitor project, dose response (AID 624133). The assay is classed as functional.
Assay [2] in a line: luciferase reporter signal suppression in cells – H4 neuroglioma cells, luminescence, dose response (AID 1990). The assay is classed as functional, cell-based. In general terms: Reporter assays use an easily measured gene product as a stand-in for the process of interest.
A short description of assay [3]: reduction of Shn3 3'UTR-driven luciferase in osteoblasts – cell-based, Clone20 osteoblasts, firefly luciferase, cherry-picked, dose response (AID 624132).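 Further: firefly luciferase luminescence from reporter carrying the Shn3 3'UTR in osteoblasts.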 In kind it is functional.
Assay [4] in a line: Shn3 transcript knock-down in Clone20 cells – cell-based, qPCR, cherry-pick, dose response (AID 743415). In kind it is functional.
The nature of assay [5]: EF1alpha-driven Renilla reporter with control 3'UTR suppression – Clone20-Shn3RL cells, dual-Glo, cherry-pick, set 2, counter-screen for Shn3 3'UTR targeting project, dose response (AID 720724). The assay is classed as functional, cell-based. The conditions noted are these: Dual-Go Shn3RL. (The purpose of a counterscreen is to sort out artefacts and off-target activity.)

Assay [6] can be described thus: alpha-synuclein stem-loop luciferase translation blockers – H4 neuroglioma cells, luminescence, confirmation (AID 1988). The assay is classed as functional, cell-based.
Assay [7] is described as follows: Shn3 3'UTR reporter signal decrease – cell-based, Clone20 osteoblasts, firefly luciferase, cherry-pick, set 2, Schnurri-3 inhibitor project, dose response (AID 720490).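 Further: actives lower the luminescence signal as inhibitors.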 In kind it is functional.
A short description of assay [8]: loss of viability in HepG2 cells – cell-based, CellTiter-Glo, cherry-picked, cytotoxicity control for Shn3 inhibitor project, dose response (AID 624134). In kind it is functional. On the technique in general: Cellular ATP, detected with luciferase, serves as a proxy for viable cell number.
Assay [9] in a line: fluconazole-exposed Candida albicans growth modulators – fluorescence, retest, confirmation (AID 2467). In kind it is functional, cell-based.
In assay [10] the target is 1-phosphatidylinositol 4,5-bisphosphate phosphodiesterase gamma-1 (Homo sapiens, UniProt P19174). Put plainly: Counterscreen for inhibitors of phospholipase C isozymes (PLC-B3): Fluorescence-based biochemical high throughput dose response assay to identify inhibitors of phospholipase C isozymes (PLC-gamma1).
In assay [11] the target is 1-phosphatidylinositol 4,5-bisphosphate phosphodiesterase beta-3 (Homo sapiens, UniProt Q01970). Put plainly: Fluorescence-based biochemical high throughput dose response assay to identify inhibitors of phospholipase C isozymes (PLC-B3).
A short description of assay [12]: THP-1 cell cytotoxicity, dose response, cytotoxicity control for non-replicating M. tuberculosis project (AID 489025). The assay is classed as functional.
The nature of assay [13]: Vero E6 cell cytotoxicity, dose response, cytotoxicity control for non-replicating M. tuberculosis project, secondary assay (AID 492998). The assay is classed as functional, VeroE6. The note with it: Vero C1008.
Assay [14] is described as follows: NIH-3T3 fibroblast cytotoxicity, dose response, cytotoxicity control, cell-based, fluorescence, Alamar Blue, secondary assay (AID 2327).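 Further: NIH-3T3 mouse fibroblasts cultured with fluconazole at 8 µg/mL.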 In kind it is functional.
Assay [15] relates to Streptococcus sp. 'group A'. Put plainly: Streptococcus pyogenes SK(-)GAS viability under kanamycin – luminescence, BacTiterGlo, confirmation, counter-screen for streptokinase expression inhibitor project, dose response (AID 1900). The assay is classed as functional, organism-based.
Assay [16] is described as follows: TB: CFU replicating Measured in Microorganism System Using Imaging - 7108-05_Inhibitor_Dose_DryPowder_Activity_Set2. In kind it is functional.
Assay [17] is described as follows: cells. The assay is classed as functional.
In assay [18] the test system is Streptococcus. Put plainly: GAS UMAA2166 growth inhibition – luminescence, BacTiterGlo, counter-screen for streptokinase expression inhibitor project, dose response (AID 1915).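 Further: potency for reduction of bacterial viability or growth.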 In kind it is functional, organism-based.
The target of assay [19] is T1, Streptokinase A (Streptococcus pyogenes serotype M1, UniProt P10520).
T1 sequence (P10520 whole entry): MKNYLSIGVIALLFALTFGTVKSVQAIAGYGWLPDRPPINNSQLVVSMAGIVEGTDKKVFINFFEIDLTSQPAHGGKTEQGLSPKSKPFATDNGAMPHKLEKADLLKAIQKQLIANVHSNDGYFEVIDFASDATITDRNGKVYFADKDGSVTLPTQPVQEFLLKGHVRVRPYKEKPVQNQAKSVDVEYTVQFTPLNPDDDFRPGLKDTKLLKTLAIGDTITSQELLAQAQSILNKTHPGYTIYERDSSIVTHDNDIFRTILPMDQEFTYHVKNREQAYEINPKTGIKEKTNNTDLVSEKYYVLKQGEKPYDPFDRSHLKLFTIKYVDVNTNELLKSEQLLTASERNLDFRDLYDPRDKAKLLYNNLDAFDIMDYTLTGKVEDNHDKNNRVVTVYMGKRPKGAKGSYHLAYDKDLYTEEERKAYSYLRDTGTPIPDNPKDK
In words: viability-normalized secreted streptokinase activity reduction – plasminogen activation absorbance, OD405, dose response (AID 1914).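 Further: secreted streptokinase activity via plasminogen activation per viability signal from cell pellet.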 The assay is classed as functional, Streptococcus pyogenes M1 GAS.

Assay [20] in a line: Trypanosoma cruzi growth suppression in host cells – NIH3T3 host cells, beta-gal luminescence, confirmation (AID 2044).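 Further: intracellular parasites grown in NIH/3T3 mouse fibroblasts as host cells; luminescent beta-galactosidase reporter signal from transgenic T. cruzi replicating inside host cells; inhibitors lower the luminescence signal.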 In kind it is functional, cell-based.
Assay [21] can be described thus: NIH3T3 cell viability loss – ATP luminescence, mouse fibroblasts, counter-screen, dose response (AID 2010).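 Further: cells exposed to compound for about 90 hours before reading.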 The assay is classed as functional, cell-based.
Assay [22] in a line: blockers of FN fibrillogenesis by fibroblasts – AH1F cells, Alexa488-FN fluorescence, cherry-picks, dose response (AID 1035475). The assay is classed as functional, cell-based.
Assay [23] concerns the target T2, Oxysterols receptor LXR-beta (Homo sapiens, UniProt P55055).
T2 sequence (P55055 whole entry): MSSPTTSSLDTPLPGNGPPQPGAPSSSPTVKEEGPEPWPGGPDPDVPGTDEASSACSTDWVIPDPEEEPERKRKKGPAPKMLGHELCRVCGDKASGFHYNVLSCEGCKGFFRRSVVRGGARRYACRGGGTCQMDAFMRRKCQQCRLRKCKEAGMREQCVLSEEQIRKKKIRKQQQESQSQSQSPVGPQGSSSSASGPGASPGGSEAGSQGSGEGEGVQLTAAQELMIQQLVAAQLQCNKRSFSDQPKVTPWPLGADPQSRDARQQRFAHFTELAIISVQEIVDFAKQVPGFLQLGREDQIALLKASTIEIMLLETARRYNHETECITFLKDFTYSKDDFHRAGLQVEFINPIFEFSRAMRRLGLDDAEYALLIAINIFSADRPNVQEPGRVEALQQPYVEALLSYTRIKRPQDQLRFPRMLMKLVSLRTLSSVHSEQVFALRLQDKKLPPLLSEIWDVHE
In words: LXR agonists, Gal4 luciferase reporter, dose response, counter-screen for ssDAF-12 agonist project, cell-based, luminescence, HEK293, S. stercoralis campaign (AID 720737). In kind it is functional. The conditions noted are these: read-out: IC50 (the source's name).

The nature of assay [24]: Luminescence-based cell-based high throughput dose response assay to identify activators of the DAF-12 from the parasite S. stercoralis (ssDAF-12). The assay is classed as functional.
A short description of assay [25]: cells.
Assay [26] has as its target T2, Oxysterols receptor LXR-beta. In kind it is functional, cell-based.
The target in assay [27] is T3, Acyl-homoserine lactone acylase PvdQ (Pseudomonas aeruginosa (strain LESB58), UniProt Q9I194).
T3 sequence (Q9I194 whole entry): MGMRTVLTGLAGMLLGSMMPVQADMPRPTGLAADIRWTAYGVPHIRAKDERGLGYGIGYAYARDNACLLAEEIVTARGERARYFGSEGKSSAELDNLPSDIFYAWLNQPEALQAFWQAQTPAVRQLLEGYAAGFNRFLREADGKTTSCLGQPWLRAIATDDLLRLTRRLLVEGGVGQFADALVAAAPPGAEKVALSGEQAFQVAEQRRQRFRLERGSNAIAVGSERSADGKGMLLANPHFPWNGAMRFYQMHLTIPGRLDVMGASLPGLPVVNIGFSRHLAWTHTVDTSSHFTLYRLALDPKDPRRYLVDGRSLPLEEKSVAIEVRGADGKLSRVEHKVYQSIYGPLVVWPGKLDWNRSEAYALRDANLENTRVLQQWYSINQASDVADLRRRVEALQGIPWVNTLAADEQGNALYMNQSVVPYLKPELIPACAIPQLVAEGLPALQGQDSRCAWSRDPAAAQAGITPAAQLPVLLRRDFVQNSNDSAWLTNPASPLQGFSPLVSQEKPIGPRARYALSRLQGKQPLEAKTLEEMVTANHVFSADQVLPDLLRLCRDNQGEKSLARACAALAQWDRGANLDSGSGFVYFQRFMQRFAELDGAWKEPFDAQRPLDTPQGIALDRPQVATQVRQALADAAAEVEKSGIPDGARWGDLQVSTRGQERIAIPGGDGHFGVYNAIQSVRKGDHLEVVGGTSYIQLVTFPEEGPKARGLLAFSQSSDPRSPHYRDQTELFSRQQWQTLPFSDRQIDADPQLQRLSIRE
In words: PvdQ acylase enzyme activity blockers – biochemical, fluorescence, plate reader and imaging, cherry-picks, dose response (AID 493231).

1-phosphatidylinositol 4,5-bisphosphate phosphodiesterase gamma-1, sequence (P19174 whole entry): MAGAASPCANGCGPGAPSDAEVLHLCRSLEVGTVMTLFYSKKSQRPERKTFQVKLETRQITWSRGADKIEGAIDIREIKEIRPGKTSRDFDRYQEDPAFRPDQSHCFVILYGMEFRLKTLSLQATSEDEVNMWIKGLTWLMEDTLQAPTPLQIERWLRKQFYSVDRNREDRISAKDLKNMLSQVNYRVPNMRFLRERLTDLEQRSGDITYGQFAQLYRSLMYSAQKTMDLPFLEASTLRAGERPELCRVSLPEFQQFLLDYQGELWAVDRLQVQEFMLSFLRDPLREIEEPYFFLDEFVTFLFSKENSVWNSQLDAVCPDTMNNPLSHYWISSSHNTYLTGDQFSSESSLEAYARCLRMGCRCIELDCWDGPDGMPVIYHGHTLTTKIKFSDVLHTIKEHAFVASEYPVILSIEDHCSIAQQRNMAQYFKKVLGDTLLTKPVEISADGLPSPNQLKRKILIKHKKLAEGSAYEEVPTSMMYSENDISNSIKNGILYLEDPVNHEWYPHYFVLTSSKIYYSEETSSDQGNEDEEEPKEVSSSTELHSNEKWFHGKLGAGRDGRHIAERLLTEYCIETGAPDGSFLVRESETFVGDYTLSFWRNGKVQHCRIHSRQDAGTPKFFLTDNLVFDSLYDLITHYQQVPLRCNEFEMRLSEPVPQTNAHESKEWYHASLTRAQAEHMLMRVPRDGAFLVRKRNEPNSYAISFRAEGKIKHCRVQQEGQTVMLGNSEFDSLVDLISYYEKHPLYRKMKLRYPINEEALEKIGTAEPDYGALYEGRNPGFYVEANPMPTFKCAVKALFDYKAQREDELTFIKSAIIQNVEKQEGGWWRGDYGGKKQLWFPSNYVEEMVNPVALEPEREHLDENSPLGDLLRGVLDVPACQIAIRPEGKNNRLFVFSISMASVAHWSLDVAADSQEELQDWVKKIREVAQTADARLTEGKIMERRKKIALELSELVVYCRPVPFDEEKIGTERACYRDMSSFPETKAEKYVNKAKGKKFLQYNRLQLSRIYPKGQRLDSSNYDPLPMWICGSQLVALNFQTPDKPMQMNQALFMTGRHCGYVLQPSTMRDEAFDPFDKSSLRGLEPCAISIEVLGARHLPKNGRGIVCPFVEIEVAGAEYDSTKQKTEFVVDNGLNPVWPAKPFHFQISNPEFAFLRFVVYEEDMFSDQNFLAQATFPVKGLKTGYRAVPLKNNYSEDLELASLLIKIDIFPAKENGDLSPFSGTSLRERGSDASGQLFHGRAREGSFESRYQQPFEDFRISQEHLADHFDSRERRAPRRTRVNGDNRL
1-phosphatidylinositol 4,5-bisphosphate phosphodiesterase beta-3, sequence (Q01970 whole entry): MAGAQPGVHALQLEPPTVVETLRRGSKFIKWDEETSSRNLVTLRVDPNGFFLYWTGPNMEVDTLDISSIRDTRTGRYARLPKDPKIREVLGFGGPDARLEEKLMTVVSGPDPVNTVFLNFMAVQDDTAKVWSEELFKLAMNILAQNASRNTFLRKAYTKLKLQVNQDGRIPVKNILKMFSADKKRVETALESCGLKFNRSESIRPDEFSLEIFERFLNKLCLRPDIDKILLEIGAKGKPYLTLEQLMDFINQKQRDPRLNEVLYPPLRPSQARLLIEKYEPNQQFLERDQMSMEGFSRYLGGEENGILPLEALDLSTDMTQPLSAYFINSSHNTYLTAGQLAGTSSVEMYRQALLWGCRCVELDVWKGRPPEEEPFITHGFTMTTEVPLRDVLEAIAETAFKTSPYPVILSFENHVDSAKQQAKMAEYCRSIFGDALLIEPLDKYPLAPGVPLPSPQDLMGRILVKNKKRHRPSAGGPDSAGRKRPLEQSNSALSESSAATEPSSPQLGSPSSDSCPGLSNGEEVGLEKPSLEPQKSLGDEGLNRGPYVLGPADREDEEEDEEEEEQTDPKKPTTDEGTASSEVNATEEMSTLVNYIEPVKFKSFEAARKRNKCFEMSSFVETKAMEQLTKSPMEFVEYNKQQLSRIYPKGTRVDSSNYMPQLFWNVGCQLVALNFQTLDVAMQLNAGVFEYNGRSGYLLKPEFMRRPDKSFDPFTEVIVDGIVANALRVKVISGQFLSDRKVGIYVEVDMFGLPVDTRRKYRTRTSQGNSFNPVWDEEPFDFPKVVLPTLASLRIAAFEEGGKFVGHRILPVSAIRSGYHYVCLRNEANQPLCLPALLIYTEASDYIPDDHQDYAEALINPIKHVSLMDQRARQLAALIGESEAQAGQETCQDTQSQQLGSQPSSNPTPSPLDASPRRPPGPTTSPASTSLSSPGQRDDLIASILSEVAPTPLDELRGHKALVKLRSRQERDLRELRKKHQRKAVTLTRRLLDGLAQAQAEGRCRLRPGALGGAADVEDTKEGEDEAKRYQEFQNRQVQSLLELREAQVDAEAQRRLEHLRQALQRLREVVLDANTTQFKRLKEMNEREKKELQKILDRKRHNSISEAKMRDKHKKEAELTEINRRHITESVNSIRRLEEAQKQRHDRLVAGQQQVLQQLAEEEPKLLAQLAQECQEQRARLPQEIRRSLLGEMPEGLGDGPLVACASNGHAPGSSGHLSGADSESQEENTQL

As for `COc1ccc(NC(=O)c2nc(S(=O)(=O)Cc3cccc(C)c3)ncc2Cl)c(OC)c1`, the AC50 in [1] is 8.06 µM (active); in assay [3], 0.299 µM (active); in assay [4], 10 µM (active); in assay [5], 3.35 µM (active); in assay [7], 1.48 µM (active); in assay [8], > 70 µM (inactive). Moreover, the results for the EC50 in assay [2] and in assay [6] were 19.2 µM (active) and 36.7 µM (active), respectively.

With `Cc1ccc(S(=O)(=O)CCC(=O)Nc2nc(-c3ccncc3)cs2)cc1`, the EC50 in assay [9] is 6.58 µM (active); in assay [14], 17.1 µM (inconclusive). The IC50 in assay [10] and in assay [11] was > 122 µM (inactive) in each case. Also, the CC50 was > 40 µM (active) in assay [12] and > 20 µM (active) in assay [13].

In the case of `Cn1c(NC(=O)c2ccccc2)nc2ccccc21`, the EC50 in assay [15] is 14.8 µM (active); in [18], > 150 µM (not active); in assay [19], > 150 µM (not active). This compound also had an AbsAC90 in assay [16] of 299.99 µM. Moreover, in assay [17], the IC50 was 2.41 µM (active). Further, the CC50 in assay [12] is > 40 µM (active).

As to `O=C(Nc1cc(Sc2nc3ccccc3s2)cc([N+](=O)[O-])c1)c1ccccc1F`, the EC50 is 1.92 µM (active) in assay [20] and > 60 µM (not active) in assay [21]. For the same compound, the AC50 in [22] is 24.3 µM (active).

Turning to `Cc1ccc([N+](=O)[O-])cc1NC(=O)C1CCCC1`, the EC50 in [23] is > 67.5 µM (inactive). In assay [24], the IC50 is > 67.5 µM (inactive).

For `COc1ccc(-c2cc(=O)c3ccccc3s2)cc1`, the EC50 in assay [25] and in assay [26] was > 67.5 µM (inactive) in each case. Further, the AC50 in assay [27] is > 100 µM (inactive).

The record behind these values is ChEMBL document CHEMBL1201862, “PubChem BioAssay data set” (2004).
